This is an account of results in US20170172994A1, “COMPOSITIONS AND METHODS FOR TREATING BACTERIAL INFECTIONS” (WOCKHARDT LIMITED, priority 2013, published 2017).

The test system of assay [1] is ESBL enzymes from K. pneumoniae S48 producing Metalo betalactamase (NDM4) and Class A (CTX-M, SHV, TEM) beta-lactamase. As to the kind of experiment: Beta-lactamase stability study (crude enzyme extract, then drug diffusion assay on E. coli ATCC 25922). In kind it is biochemical. The following applies: for Inhibition zone diameter after treatment with beta-lactamase enzyme: 40 μg/ml, zone on E. coli ATCC 25922. How it is done:
(§1) Next, the beta-lactamase stability of some of these compounds was evaluated. In a typical stability study, ESBL enzymes from K. pneumoniae S48 producing Metalo betalactamase (NDM4) and Class A (CTX-M, SHV, TEM) beta-lactamase were isolated from freshly grown culture by 5 repetitive cycles of freeze and thaw in liquid nitrogen. […] After the stipulated incubation duration, the test compounds were extracted from the reaction mixture by the addition of 0.5 ml of Acetonitrile in 1:1 ratio (final concentration of test compound—40 μg/ml) and centrifuged at 12000 rpm for 2 min to separate precipitated protein. The activity of test compounds was measured from the supernatant by performing microbiological drug diffusion assay. For drug diffusion assay, Muller-Hinton Agar (MHA) seeded with E. coli ATCC 25922 was poured on to a bioassay plate placed on a flat surface and allowed to solidify. Appropriate concentration of the standalone and enzyme treated test compound dilutions were added to 6 mm wells cut with the help of a borer. The antibacterial activity of the test compounds was measured in terms of zones of inhibition appearing after 18-24 hours of incubation at 37° C. Measurement of diameter of zone of inhibition was undertaken to the nearest whole value with the help of ruler.

In the next assay the target is Pseudomonas PBP 5/6 (Pseudomonas aeruginosa, UniProt G3XD74). The experiment in a line: PBP binding assay (Bocillin FL competition). The following applies: read-out: IC50. How it is done: (§2) The phrase “selective and high affinity PBP binder” refers to a PBP binder which binds to only one PBP with very high affinity. In general, the term “selective and high affinity PBP binder” also includes those binders where a substantial fraction of binder selectively binds to only one PBP with high affinity. […]. The term “IC50 value” of a compound refers to the concentration of the compound that reduces the binding of Bocillin-FL to PBPs by 50% as compared to when no compound was added to the reaction.
(§3) A compound of Formula (III) was prepared using the procedure disclosed in PCT International Application No. PCT/IB2012/054290 and was evaluated for its PBP binding affinity profile. […] The reaction mixtures were then denatured with 20 μl each of SDS-denaturing solution at 100° C. for 3 min PBPs were separated through 10% SDS polyacrylamide gel electrophoresis (Bio-Rad Laboratories, Hercules, Calif.). The protein gels were rinsed in water immediately after electrophoresis. […] […].

The target in another assay is T1, Pseudomonas PBP 1A (Pseudomonas aeruginosa, UniProt Q07806).
T1 construct: endogenous in cells
As to the kind of experiment: PBP binding assay (Bocillin FL competition). How it is done:
as §2, §3

For a further assay, the system named is E. coli ATCC 25922. As to the kind of experiment: Microbiological drug diffusion assay, standalone compounds in absence of beta-lactamase enzymes. In kind it is cell-based. The following applies: Escherichia coli, read-out: Inhibition zone diameter. How it is done: as §1
The test system of assay [2] is K. pneumonia S48 expressing multiple ESBLs including MBL (NDM4) and Class A (CTX-M, SHV, TEM). It counts as cell-based, K. pneumoniae. The following applies: Cefepime 8 μg/ml, Compound of Formula (III) 2 μg/ml, Clavulanic acid 2 μg/ml, Mecillinam 2 μg/ml, Imipenem 8 μg/ml. How it is done: Log phase cultures were diluted to desired inoculums in flasks with MHB, containing various drug concentrations. Flasks were incubated at 35° C. in orbital shaker with rotational speed of 125 rpm. […] Plates were incubated for 24 hours at 35° C. and colonies were enumerated to determine the colony forming units (CFU) per ml volume.

Assay [3] relates to MDR P. mirabilis G 186 producing NDM & TEM β-lactamases. As to the kind of experiment: Time kill study at MFC and MSC. It counts as cell-based. The following applies: Cefepime 8 mcg/ml (MFC), Compound of Formula (III) 0.25 mcg/ml (MSC), Imepenem 8 mcg/ml. The method, then: (§4) The synergistic killing effect of the combinations according to invention was studied by performing time kill studies. In a typical time kill study, the freshly grown cultures were diluted to the required cell density (initial starting inoculum) in Cation adjusted Muller Hinton broth medium (BD, USA). The antibacterial agents (either alone or in combination) at the required concentrations were added into the culture-containing medium. The samples were incubated under shaking condition (120 rpm) at 37° C. Enumeration of viable bacterial count was done every 2 hour by diluting in normal saline and plating on to the Tryptic Soya Agar plates (BD, USA). The plates were incubated for 24 hours to arrive at the viable bacterial count. The results are expressed in terms of Log CFU per ml. In general, the decrease of 1 Log CFU/ml, corresponds to 90% killing of bacteria. Similarly, 2 Log CFU/ml reductions indicates to 99% killing of bacteria and 3 Log CFU/ml reductions is equal to 99.9% killing of bacteria.

Assay [4] relates to MDR Klebsiella pneumoniae B 88 producing NDM, SHV & TEM beta-lactamases. The experiment in a line: Time kill study at MFC and MSC. It counts as cell-based. The following applies: Cefepime 8 mcg/ml (MFC), Compound of Formula (III) 0.12 mcg/ml (MSC), Imepenem 8 mcg/ml. The method, then:
as §4

Assay [5] deals with Pseudomonas aeruginosa NCTC 13437 producing carbapenem hydrolyzing MBL (VIM 10) & Class A (VEB1). As to the kind of experiment: Time kill study (viability count). In kind it is cell-based. The following applies: Cefepime 8 μg/ml, Compound of Formula (III) 8 μg/ml, Imipenem 16 μg/ml. How it is done: (§5) The antibacterial effectiveness of various antibacterial agents in presence of a compound of Formula (III) was investigated and the results are detailed below. In a typical study, overnight cultures in Trypticase soya broth (TSB) were brought to log phase by 1 in 10 dilution in fresh cation adjusted Mueller Hinton Broth (MHB) and incubation for 2.5 hours at 35° C. in orbital shaker. Log phase cultures were diluted to desired inoculums in flasks with MHB, containing various drug concentrations. Flasks were incubated at 35° C. in orbital shaker with rotational speed of 125 rpm. Viability count was determined by 1 in 10 serial dilutions of samples in normal saline and surface spreading of 10 μl of dilutions in duplicate on Trypticase soya agar plates. Plates were incubated for 24 hours at 35° C. and colonies were enumerated to determine the colony forming units (CFU) per ml volume.

The test system of assay [6] is Acinetobacter baumannii NCTC 13304 producing carbapenem hydrolyzing Class D OXA enzyme (OXA 27). As to the kind of experiment: Time kill study (viability count). It counts as cell-based. The following applies: Cefepime 8 μg/ml, Compound of Formula (III) 8 μg/ml, Imipenem 16 μg/ml. The method, then:
as §5

The subject of a further assay is K pneumoniae J 101. The experiment in a line: MIC determination (agar dilution, CLSI). It counts as cell-based. The following applies: K pneumoniae J 101 (TEM1, SHV12, OMP); standalone. The method, then:
(§6) In a typical procedure for determining MIC values, overnight grown bacterial cultures were diluted appropriately and inoculated on the agar media containing doubling concentrations of the test compounds. Observation for growth or no growth was performed after 16-20 hours of incubation at 35±2° C. in ambient air. The overall procedure was performed as per Clinical and Laboratory Standards Institute (CLSI) recommendations (Clinical and Laboratory Standards Institute (CLSI), Performance Standards for Antimicrobial Susceptibility Testing, 20th Informational Supplement, M 100-S20, Volume 30, No. 1, 2010).
(In general: In agar dilution, organisms are placed on agar that contains the substance at set levels.)

In a further assay the test system is K pneumoniae J 104. As to the kind of experiment: MIC determination (agar dilution, CLSI). In kind it is cell-based. The following applies: K pneumoniae J 104 (TEM1, SHV11, CTX-M, OMP); standalone. The method, then:
as §6

Another assay concerns K pneumoniae J 102. As to the kind of experiment: MIC determination (agar dilution, CLSI). In kind it is cell-based. The following applies: K pneumoniae J 102 (TEM1, SHV5, OMP); standalone. How it is done:
as §6

Another assay relates to K pneumoniae J 105. The experiment in a line: MIC determination (agar dilution, CLSI). It counts as cell-based. The following applies: K pneumoniae J 105 (TEM1, SHV2, CTX-M, OMP); standalone. How it is done:
as §6

Each structure is given as a SMILES string. ≈ marks a conversion by molar mass, not a printed value. Where two headings read alike, the source gives them in different places. Bounds are passed on as bounds.

Pseudomonas PBP 5/6, sequence (G3XD74 entry or part of it): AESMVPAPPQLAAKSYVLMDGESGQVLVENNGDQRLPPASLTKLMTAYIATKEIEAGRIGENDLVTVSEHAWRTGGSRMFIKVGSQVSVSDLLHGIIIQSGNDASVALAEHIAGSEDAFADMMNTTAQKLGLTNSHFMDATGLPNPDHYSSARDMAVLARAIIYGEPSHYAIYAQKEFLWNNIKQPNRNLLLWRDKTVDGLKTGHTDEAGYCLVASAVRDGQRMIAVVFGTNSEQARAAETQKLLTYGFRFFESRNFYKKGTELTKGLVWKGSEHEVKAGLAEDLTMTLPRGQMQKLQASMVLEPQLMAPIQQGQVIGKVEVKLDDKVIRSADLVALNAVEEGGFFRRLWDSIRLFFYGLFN
T1 sequence (Q07806 whole entry): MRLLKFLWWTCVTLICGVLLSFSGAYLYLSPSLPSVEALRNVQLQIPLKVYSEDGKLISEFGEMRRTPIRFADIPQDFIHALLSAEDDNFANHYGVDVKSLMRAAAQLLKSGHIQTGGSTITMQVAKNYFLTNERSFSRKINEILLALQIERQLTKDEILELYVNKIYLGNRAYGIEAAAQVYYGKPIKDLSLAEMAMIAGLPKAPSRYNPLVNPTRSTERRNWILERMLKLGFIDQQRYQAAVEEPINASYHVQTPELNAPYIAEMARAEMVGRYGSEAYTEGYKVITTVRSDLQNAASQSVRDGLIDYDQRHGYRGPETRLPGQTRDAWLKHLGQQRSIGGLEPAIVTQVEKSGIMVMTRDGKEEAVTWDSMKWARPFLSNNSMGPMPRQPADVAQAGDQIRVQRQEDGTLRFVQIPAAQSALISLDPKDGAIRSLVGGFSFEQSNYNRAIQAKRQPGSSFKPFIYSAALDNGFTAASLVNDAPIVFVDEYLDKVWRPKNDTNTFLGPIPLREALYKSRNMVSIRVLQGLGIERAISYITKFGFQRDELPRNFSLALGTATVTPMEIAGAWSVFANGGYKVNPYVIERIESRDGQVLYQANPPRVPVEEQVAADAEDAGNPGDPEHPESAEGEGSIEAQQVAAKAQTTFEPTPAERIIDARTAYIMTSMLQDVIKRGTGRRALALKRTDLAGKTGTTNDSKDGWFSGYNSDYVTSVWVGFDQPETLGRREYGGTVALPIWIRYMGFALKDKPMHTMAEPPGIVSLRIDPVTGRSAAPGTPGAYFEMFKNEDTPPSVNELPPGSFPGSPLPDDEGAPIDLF

As usually defined, the IC50 is the concentration at which inhibition is half-maximal. On to `CC1(C)S[C@@H]2[C@H](/N=C/N3CCCCCC3)C(=O)N2[C@H]1C(=O)O` [Mecillinam], for which the “Inhibition zone diameter after treatment with beta-lactamase enzyme” value in assay [1] (0 hour incubation at 37° C.) came to 15.5 mm; in [1] (1 hour incubation at 37° C.) it was 12 mm; in assay [1] (2 hours incubation at 37° C.), 0 mm; in assay [1] (24 hours incubation at 37° C.), 0 mm. Further, in assay [1] (carbapenem hydrolyzing metallo beta-lactamase, up to 24 hours), the “Stability to beta-lactamase (in words)” value is reported as “not stable to the beta-lactamase”. The IC50 at Pseudomonas PBP 5/6 and at Pseudomonas PBP 1A was above 12.3 µM each time. In addition, the zone of inhibition at 40 µg/mL in the assay with E. coli ATCC 25922 (ATCC25922, 0 h) was determined as 15.5 mm; in the assay with E. coli ATCC 25922 (ATCC25922, 1 h), 15.5 mm; in the assay with E. coli ATCC 25922 (ATCC25922, 2 h), 15.5 mm; in the assay with E. coli ATCC 25922 (ATCC25922, 24 h), 15.5 mm.
For the molecule `C[C@@H](O)[C@H]1C(=O)N2C(C(=O)O)=C(SCCN=CN)C[C@H]12` [Imipenem], the Bacterial count was 5.5 log (CFU/ml) in assay [2] (0 hour); 3.0 log (CFU/ml) in [2] (2 hours); 3.0 log (CFU/ml) in assay [2] (4 hours); 4.0 log (CFU/ml) in assay [2] (6 hours); 8.69 log (CFU/ml) in [2] (24 hours); 6.58 Log10 CFU/ml in assay [3] (0 hour). Also, the Bacterial count in [3] (2 hours) came to 7.2 Log10 CFU/ml; in assay [3] (4 hours), 9.45 Log10 CFU/ml; in [3] (6 hours), 8.65 Log10 CFU/ml; in assay [3] (8 hours), 8.85 Log10 CFU/ml; in assay [4] (0 hour), 6.14 Log10 CFU/ml; in [4] (2 hours) it was 8.65 Log10 CFU/ml. Besides, the Bacterial count was 8.7 Log10 CFU/ml in [4] (4 hours); 8.74 Log10 CFU/ml in assay [4] (6 hours); 8.78 Log10 CFU/ml in assay [4] (8 hours); 6.0 log (CFU/ml) in assay [5] (0 hour); 7.2 log (CFU/ml) in assay [5] (2 hours); 7.9 log (CFU/ml) in [5] (4 hours). Also, the Bacterial count is 7.9 log (CFU/ml) in assay [5] (6 hours); 8.3 log (CFU/ml) in assay [5] (12 hours); 6.3 log (CFU/ml) in [6] (0 hour); 7.2 log (CFU/ml) in assay [6] (2 hours); 7.9 log (CFU/ml) in assay [6] (4 hours); 7.9 log (CFU/ml) in assay [6] (6 hours). Moreover, in assay [6] (8 hours), the Bacterial count is listed as 8 log (CFU/ml). Further, the zone of inhibition at 40 µg/mL in the assay with E. coli ATCC 25922 (ATCC25922, 40 μg/ml, no beta-lactamase, 0 hour) was determined as 22 mm; in the assay on E. coli ATCC 25922 (ATCC25922, 40 μg/ml, no beta-lactamase, 1 hour), 22 mm; in the assay on E. coli ATCC 25922 (ATCC25922, 40 μg/ml, no beta-lactamase, 2 hours) it was 22 mm; in the assay with E. coli ATCC 25922 (ATCC25922, 40 μg/ml, no beta-lactamase, 24 hours), 22 mm.
The MIC is the lowest concentration found to suppress growth. High values mean a need for much substance, low ones inhibition by little substance. As for `C[C@@H](O)[C@H]1C(=O)N2C(C(=O)O)=C(S[C@@H]3CN[C@H](C(=O)N(C)C)C3)[C@H](C)[C@H]12` [Meropenem], the minimum inhibitory concentration (MIC) against K pneumoniae J 101 came to 4 µg/mL (≈ 10.4 µM); in the assay with K pneumoniae J 104, 4 µg/mL (≈ 10.4 µM); against K pneumoniae J 102, 8 µg/mL (≈ 20.9 µM); with K pneumoniae J 105, 4 µg/mL (≈ 10.4 µM).
